Results: US20100324067A1, “TETRACYCLIC DIPYRANO-COUMARIN COMPOUNDS WITH ANTI-HIV AND ANTI-MYCOBACTERIUM TUBERCULOSIS ACTIVITIES” (priority 2007, published 2010)
Values after ≈ are worked out from the molar mass of the structure shown. Like-named read-outs stand apart in the source and are kept apart here.

Experiments:
HIV-1 = assay: Inhibitory activity against HIV-1 (literature method, Chen et al. J Virol 1997); settings: for inhibition at 1 µM: Human immunodeficiency virus 1, read-out: Anti-HIV (%, 1.0 μM); for EC50: Human immunodeficiency virus 1; for Therapeutic index (TI) = 50% cytotoxicity doses/50% effective dose: value in brackets after EC50
Procedure: Inhibitory activity of the coumarin derivatives of the present invention against HIV-1.
Inhibitory activity of the compounds against HIV-1 is assayed using the literature method. The experimental conditions, procedures, reagents and so on of the experiment are referred to the reference of “ZHIWEI CHEN, PEI ZHOU, DAVID D. HO, et al. Genetically divergent strains of simian immuno-deficiency virus use CCR5 as a coreceptor for entry. Journal of Virology, 1997, 71(4): 2705-2714”.

[1] = test system: Mycobacterium tuberculosis H37Rv (ATCC 27294); assay: Microplate Alamar Blue Assay (MABA) in BACTEC 12B medium (TAACF screen); format: cell-based
[2] = read-out: anti-TB active compound (MIC90 less than 10 μg/mL), classification

Structure (SMILES)	inhibition at 1 µM (HIV-1) [%]	melting point [°C]	IC50 [1] [µg/mL]	MIC90 ([1]; MABA, H37Rv, read-out: MIC90) [µg/mL]	MIC90 [1, 2] [µg/mL]	IC50 ([1]; MABA, H37Rv, read-out: IC50) [µg/mL]	other results
CCCCC1C=Cc2c3c(c4oc(=O)cc(CCC)c4c2O1)C(=O)C(C)CO3 (stereo not drawn) [Example 77, 4-n-propyl-6-n-butyl-11-methyl-2H,6H,12H-benzo[1,2-b:3,4-b′:5,6-b″]-tripyranyl-2,12-dione]	35.2	144 to 145					
CCCc1cc(=O)oc2c3c(c4c(c12)OC(C)(C)C=C4)OC(C)(C)CC3=O [Example 12, 6,6,10,10-tetramethyl-4-n-propyl-2H,6H,12H-benzo[1,2-b:3,4-b′:5,6-b″]-tripyranyl-2,12-dione]	68.3	110 to 112					EC50 (HIV-1): 640 nM; Therapeutic index (TI) = 50% cytotoxicity doses/50% effective dose (HIV-1): 47-140
CCCc1cc(=O)oc2c3c(c4c(c12)OC(C)(C)C=C4)OCC(C)C3=O (stereo not drawn) [Example 30, 6,6,11-trimethyl-4-n-propyl-2H,6H,12H-benzo[1,2-b:3,4-b′:5,6-b″]-tripyranyl-2,12-dione]	38.9	133 to 134					
CCCc1cc(=O)oc2c3c(c4c(c12)OC(C)(C)C=C4)O[C@@H]1CCCC[C@@H]1C3=O [Example 19, 6,6-dimethyl-4-n-propyl-10,11-cis-cyclohexyl-2H,6H,12H-benzo[1,2-b:3,4-b′:5,6-b″]-tripyranyl-2,12-dione]	59.3	156 to 159	7.95 (≈ 20.1 µM)	11.2 (≈ 28.5 µM)			
CCCc1c(Cl)c(=O)oc2c3c(c4c(c12)OC(c1ccccc1)C=C4)OC(C)CC3=O (stereo not drawn) [Example 50, 1-methyl-4-n-propyl-3-chloro-6-phenyl-2H,6H,12H-benzo[1,2-b:3,4-b′:5,6-b″]-tripyranyl-12-dione]	96.3	152 to 154	6.07 (≈ 13.9 µM)	6.7 (≈ 15.3 µM)	< 10		
CCCCCC1CC(=O)c2c(c3c(c4c(CCC)cc(=O)oc24)OC(C)(C)C=C3)O1 (stereo not drawn) [Example 15, 6,6-dimethyl-4-n-propyl-10-n-pentyl-2H,6H,12H-benzo[1,2-b:3,4-b′:5,6-b″]-tripyranyl-2,12-dione]	46.4	128 to 131					
CCc1cc(=O)oc2c3c(c4c(c12)OC(c1ccccc1)C=C4)OC(C)CC3=O (stereo not drawn) [Example 45]	96.4	126 to 128	2.01 (≈ 5.18 µM)	2.73 (≈ 7.02 µM)	< 10		
CCCC1C=Cc2c3c(c4oc(=O)cc(CC)c4c2O1)C(=O)CC(C)O3 (stereo not drawn) [Example 47]	97	119 to 121	1.49 (≈ 4.21 µM)	1.73 (≈ 4.88 µM)	< 10		
CCCc1cc(=O)oc2c3c(c4c(c12)OC(C)(C)C=C4)OC(CCC)CC3=O (stereo not drawn) [Example 14, 6,6-dimethyl-4,10-di-n-propyl-2H,6H,12H-benzo[1,2-b:3,4-b′:5,6-b″]-tripyranyl-2,12-dione]	61.9		5.72 (≈ 15 µM)	6.44 (≈ 16.8 µM)	< 10		EC50 (HIV-1): 32.5 nM; anti-HIV-1 activity in vitro compared to (+)-calanolide A (HIV-1; in words): much higher inhibitory activity; therapeutic index, in words (HIV-1; in words): high therapeutic index; Therapeutic index (TI) = 50% cytotoxicity doses/50% effective dose (HIV-1): 102-308
CCCCc1cc(=O)oc2c3c(c4c(c12)OC(c1ccccc1)C=C4)OC(C)CC3=O (stereo not drawn) [Example 44]	96.4	137 to 139					
CCCc1cc(=O)oc2c3c(c4c(c12)OC(c1ccccc1[N+](=O)[O-])CC4OCC)OC(C)CC3=O (stereo not drawn) [Example 98, 8-ethoxyl-4-n-propyl-6-(o-nitrophenyl)-10-methyl-4-n-propyl-7,8,10,11-tetrahydro-6H-benzo[2,3-f;2′,3′-h]-tripyranyl-2,12-dione]	61	237 to 240					
CCCc1cc(=O)oc2c3c(c4c(c12)OC(C)(C)C=C4)OC(c1ccccc1)CC3=O (stereo not drawn) [Example 16, 6,6-dimethyl-4-n-propyl-10-phenyl-2H,6H,12H-benzo[1,2-b:3,4-b′:5,6-b″]-tripyranyl-2,12-dione]	62.7		2.91 (≈ 6.99 µM)	> 100			
CCCCC1C=Cc2c3c(c4oc(=O)cc(CC)c4c2O1)C(=O)CC(C)O3 (stereo not drawn) [Example 46]	96.7	119 to 121	0.276 (≈ 0.749 µM)	0.716 (≈ 1.94 µM)	< 10		
Cc1cc(=O)oc2c3c(c4c(c12)OC(C)(C)C=C4)OC(C)CC3=O (stereo not drawn) [Example 1, 4,6,6,10-tetramethyl-2H,6H,12H-benzo[1,2-b:3,4-b′:5,6-b″]-tripyranyl-2,12-dione]		213 to 215		59.5 (≈ 182 µM)		39.2 (≈ 120 µM)	
CCc1c(F)c(=O)oc2c3c(c4c(c12)OC(c1ccccc1)C=C4)OC(C)CC3=O (stereo not drawn) [Example 42, 10-methyl-4-ethyl-6-phenyl-3-fluoro-2H,6H,12H-benzo[1,2-b:3,4-b′:5,6-b″]-tripyranyl-2,12-dione]		109 to 111		6.81 (≈ 16.7 µM)	< 10	5.56 (≈ 13.7 µM)	
CCCc1cc(=O)oc2c3c(c4c(c12)OC(C)C=C4)OCC(C)C3=O (stereo not drawn) [Example 75, 6,11-dimethyl-4-n-propyl-2H,6H,12H-benzo[1,2-b:3,4-b′:5,6-b″]-tripyranyl-2,12-dione]	62.4	135 to 137	1 (≈ 2.95 µM)	1.89 (≈ 5.56 µM)	< 10		
C/C=C/C1C=Cc2c3c(c4oc(=O)cc(CCC)c4c2O1)C(=O)CC(C)O3 (stereo not drawn) [Example 85, 4-n-propyl-6-propenyl-1-methyl-2H,6H,12H-benzo[1,2-b:3,4-b′:5,6-b″]-tripyranyl-2,12-dione]		136 to 138		4.86 (≈ 13.3 µM)	< 10	2.08 (≈ 5.68 µM)	
CCc1c(F)c(=O)oc2c3c(c4c(c12)OCC(C)=C4)OC(C)CC3=O (stereo not drawn) [Example 93, 4-ethyl-3-fluoro-7,10-dimethyl-2H,6H,12H-benzo[1,2-b:3,4-b′:5,6-b″]-tripyranyl-2,12-dione]		118 to 120		> 100		76.2 (≈ 221 µM)	
CC1CC(=O)c2c(c3c(c4c5c(c(=O)oc24)CCC5)OC(C)(C)C=C3)O1 (stereo not drawn) [Example 26, 6,6,10-trimethyl-3,4-cyclopentyl-2H,6H,12H-benzo[1,2-b:3,4-b′:5,6-b″]-tripyranyl-2,12-dione]		108 to 109		43.6 (≈ 124 µM)		23.9 (≈ 67.8 µM)	
CCCc1cc(=O)oc2c3c(c4c(c12)OC(C)(C)C=C4)O[C@@H]1CCCC[C@H]1C3=O [Example 18, 6,6-dimethyl-4-n-propyl-10,11-trans-cyclohexyl-2H,6H,12H-benzo[1,2-b:3,4-b′:5,6-b″]-tripyranyl-2,12-dione]	40	151 to 153	46.8 (≈ 119 µM)	> 100			
CCCCC1C=Cc2c3c(c4oc(=O)c(F)c(CC)c4c2O1)C(=O)CC(C)O3 (stereo not drawn) [Example 40]		142 to 143		2.47 (≈ 6.39 µM)	< 10	1.58 (≈ 4.1 µM)	
CCCCc1cc(=O)oc2c3c(c4c(c12)OC(CCCC)C=C4)OC(C)CC3=O (stereo not drawn) [Example 38]		146 to 148		14.4 (≈ 36.4 µM)		10.4 (≈ 26.3 µM)	
CCOC1c2c3c(c4oc(=O)cc(CC)c4c2OCC1C)C(=O)CC(C)O3 (stereo not drawn) [Example 94, 8-ethyoxyl-7,10-dimethyl-4-ethyl-7,8,10,11-tetrahydro-6H-benzo[2,3-f;2′,3′-h]-tripyranyl-2,12-dione]		174 to 176		16.7 (≈ 44.8 µM)		10 (≈ 26.9 µM)	
CCCc1c(F)c(=O)oc2c3c(c4c(c12)OC(CCC)C=C4)OC(C)CC3=O (stereo not drawn) [Example 32, 10-methyl-3-fluoro-4,6-di(-n-propyl)-2H,6H,12H-benzo[1,2-b:3,4-b′:5,6-b″]-tripyranyl-2,12-dione]		123 to 124		> 100		78.3 (≈ 203 µM)	
CCCc1cc(=O)oc2c3c(c4c(c12)OC(C)(C)C=C4)OC(C)CC3=O (stereo not drawn) [Example 11, 6,6,10-trimethyl-4-n-propyl-2H,6H,12H-benzo[1,2-b:3,4-b′:5,6-b″]-tripyranyl-2,12-dione]	73.1						
CCCc1c(F)c(=O)oc2c3c(c4c(c12)OC(C)(C)C=C4)OC(C)CC3=O (stereo not drawn) [Example 31, 6,6,10-trimethyl-3-fluoro-4-n-propyl-2H,6H,12H-benzo[1,2-b:3,4-b′:5,6-b″]-tripyranyl-2,12-dione]	45.3						
